Reference: patent US12180220B2, “Heteroaryl modulators of RAS GTPase” (Tosk, Inc., priority 2020, dated 2024)
pIC50: −log10 of the molar value.

System: SW620 Cell Lines
Experiment: Cell proliferation / cytotoxicity assay (CellTiter-Glo 2.0)
Format: cell-based
Details: Homo sapiens, SW-620; 72 hours incubation, luminescence (CellTiter-Glo 2.0), 2-fold dilutions starting at 50 μM
Experimental: Compounds are assayed for inhibition of cell proliferation and killing cancer cells. Cytotoxicity assays are conducted according to the following general procedure. […] cells (ATCC CCL-227) are maintained in DMEM Low Glucose (Corning 10-014-CV) media supplemented with 10% fetal bovine serum and 1% PenStrep and grown at 37° C. in 5% CO2. Cells are plated into 96 well flat bottom plates (2 million/plate, ˜20,000/well, 200 μL media/well). The cells are allowed to settle and adhere to the plate bottom overnight. Compounds are diluted in media from a 10 mM stock solution starting at 50 μM, using 2-fold dilutions, in a column in a 96-well plate. Media is removed from the plate containing cells and replaced with media containing diluted compounds. Plates are incubated 72 hours at 37° C. in 5% CO2. Plates are allowed to come to room temperature and 100 μL CellTiter-Glo 2.0 reagent (Promega, G924C) is added at room temperature. Plates are shaken for 2 minutes, then allowed to stand for 15 minutes. Luminescence is read with FLx800 (BioTek Instruments). Data is plotted with GraphPad Prizm 8.0.

| SMILES | pIC50 |
| --- | --- |
| Cc1nc(N[C@@H]2CCN(C(=O)OC(C)(C)C)[C@H](C)C2)nc2ccc(-c3ccnc4c3OCCO4)cc12 [Compound 2A] | > 5.30 |
| Cc1nc(O[C@H]2CC[C@@H](NC(=O)OC(C)(C)C)CC2)nc2ccc(-c3ccnc4c3OCCO4)cc12 [Compound 7A] | > 5.30 |
| Cc1nc(N[C@H]2CC[C@@H](NC(=O)OC(C)(C)C)CC2)nc2ccc(-c3c(Cl)cnc4c3OCCO4)cc12 [Compound 10A] | > 5.30 |
| Cc1nc(NC2CCN(Cc3ccc(Cl)cc3)CC2)nc2ccc(-c3ccnc4c3OCCO4)cc12 [Compound 13A] | > 5.30 |
| Cc1nc(N[C@H]2CC[C@H](NC(=O)OC(C)(C)C)CC2)nc2ccc(-c3ccnc4c3OCCO4)cc12 [Compound 4A] | > 5.30 |
| Cc1nc(N[C@H]2CC[C@@H](NC(=O)OC(C)(C)C)CC2)nc2ccc(-c3ccnc4c3OCCO4)cc12 [Compound 3A] | > 5.30 |
| Cc1nc(N[C@H]2CCC[C@@H](NC(=O)OC(C)(C)C)C2)nc2ccc(-c3ccnc4c3OCCO4)cc12 [Compound 11A] | > 5.30 |
| Cc1nc(N[C@H]2CC[C@@H](C(=O)NC(C)C)CC2)nc2ccc(-c3cccc4c3OCCO4)cc12 [Compound 3B] | 5.00 to 5.30 |
| Cc1ccc2ccc(F)c(-c3ccc4nc(N[C@H]5CC[C@@H](NC(=O)OC(C)(C)C)CC5)nc(C)c4c3)c2n1 [Compound 5C] | 5.00 to 5.30 |
| Cc1ccc2ccc(F)c(-c3ccc4nc(NC5CCN(C(=O)OC(C)C)CC5)nc(C)c4c3)c2n1 [Compound 2C] | 5.00 to 5.30 |
| Cc1nc(NC2CCN(C(=O)OC(C)(C)C)CC2)nc2ccc(-c3cccc4c3CCCC4)cc12 [Compound 5B] | 5.00 to 5.30 |
| Cc1nc(N[C@H]2CC[C@H](NC(=O)OC(C)(C)C)CC2)nc2ccc(-c3cccc4c3CCCC4)cc12 [Compound 7B] | 5.00 to 5.30 |
| Cc1nc(N[C@H]2CC[C@@H](NC(=O)c3ccc(Cl)cc3)CC2)nc2ccc(-c3ccnc4c3OCCO4)cc12 [Compound 8A] | > 5.30 |
| Cc1nc(N[C@@H]2C[C@H]3CC[C@@H](C2)N3C(=O)c2ccc(Cl)cc2)nc2ccc(-c3ccnc4c3OCCO4)cc12 [Compound 8C] | > 5.30 |
| Cc1nc(NC2CCC(C(=O)NCc3ccc(Cl)cc3)CC2)nc2ccc(-c3cccc4c3OCCO4)cc12 (stereo not shown) [Compound 1B] | 5.00 to 5.30 |
| Cc1nc(N[C@H]2CC[C@@H](NC(=O)OC(C)(C)C)CC2)nc2ccc(-c3cccc4c3CCCC4)cc12 [Compound 6B] | 5.00 to 5.30 |
| Cc1nc(N[C@H]2CC[C@@H](NC(=O)OC(C)(C)C)CC2)nc2ccc(-c3ccnc4c3OCCO4)c(F)c12 [Compound 9A] | > 5.30 |
| Cc1nc(N[C@H]2CCN(Cc3ccc(Cl)cc3)[C@@H](C)C2)nc2ccc(-c3ccnc4c3OCCO4)cc12 [Compound 15A] | > 5.30 |
| Cc1ccc2ccc(F)c(-c3ccc4nc(NC5CCN(C(=O)OC(C)(C)C)CC5)nc(C)c4c3)c2n1 [Compound 1C] | > 5.30 |
| Cc1nc(N[C@H]2CC[C@@H](C(=O)NC3CCCCC3)CC2)nc2ccc(-c3cccc4c3OCCO4)cc12 [Compound 2B] | 5.00 to 5.30 |
| Cc1nc(N[C@@H]2CCN(C(=O)OC(C)(C)C)[C@@H](C)C2)nc2ccc(-c3ccnc4c3OCCO4)cc12 [Compound 1A] | > 5.30 |
| Cc1nc(NC2CCN(C(=O)c3ccc(Cl)cc3)CC2)nc2ccc(-c3ccnc4c3OCCO4)cc12 [Compound 14A] | > 5.30 |
| Cc1nc(N[C@H]2CC[C@@H](NC(=O)OC(C)(C)C)CC2)nc2ccc(-c3cccc4c3OCC(=O)N4)cc12 [Compound 7C] | 5.00 to 5.30 |
| Cc1nc(N[C@H]2CC[C@@H](NC(=O)OC(C)(C)C)CC2)nc2ccc(-c3cc[n+]([O-])c4c3OCCO4)cc12 [Compound 12A] | 5.00 to 5.30 |
| Cc1nc(N[C@H]2CC[C@@H](NC3Cc4cccc(Cl)c4C3)CC2)nc2ccc(-c3ccnc4c3OCCO4)cc12 (stereo partly shown) [Compound 16A] | > 5.30 |
| Cc1nc(N[C@H]2C[C@@H](NC(=O)OC(C)(C)C)C2)nc2ccc(-c3ccnc4c3OCCO4)cc12 [Compound 5A] | > 5.30 |
| Cc1nc(N[C@H]2C[C@H](NC(=O)OC(C)(C)C)C2)nc2ccc(-c3ccnc4c3OCCO4)cc12 [Compound 6A] | > 5.30 |
| Cc1nc(NC2CCN(C(=O)OC(C)(C)C)CC2)nc2ccc(-c3ccnc4ccccc34)cc12 [Compound 4C] | 5.00 to 5.30 |
